Reference: patent publication US20060177385A1, “Compositions for treating dental caries caused by streptococcus mutans infection” (priority 2002, published 2006)

Key:
[1] = molecular target: T1, Rhodobacter sphaeroides (Rb.s.) ADPG Ppase (Cereibacter sphaeroides, UniProt Q9RNH7); assay: ADPG Ppase enzyme assay (14C Glc-1-P to ADPGlucose) with ADPG borano analogs; format: biochemical; parameters: *2.2: unit not given here; settings: for inhibition of Rb.s. ADPG Ppase: 500 μM
T1 construct: made in house
From the text: Assaying for ADPGlc synthesis activity involves measuring the amount of 14-C labeled Glc-1-P converted to ADPGlucose (Preiss, J., Shen, L., Greenberg, E., and Gentner, N. (1966) Biochemistry 5, 1833-1845). Briefly, unreacted Glc-1-P is separated from product by the following steps: 1) digestion with alkaline phosphatase (thus removing the negatively charged phosphate); 2) spotting an aliquot of the reaction mixture on to positively charged DE-81 filters (Whatman); and 3) washing the filters with water (thus removing the now neutral C-14 glucose).
To assess the effect of a putative inhibitor, enzyme assays are performed at a subsaturating concentration of substrate (depending on the enzyme, ATP=0.2-1 mM, Glc-1-P=0.5 mM) under standard conditions in the absence and presence of the major activator for each enzyme (1-5 mM depending on enzyme). In this way, the effect of the inhibitors can be evaluated under the range of the expected in vivo conditions. Initial screening of a putative inhibitor typically includes testing at two concentrations (˜25 μM and 1 mM)±major activator with appropriate controls and blanks for a total of 9 assays/inhibitor/enzyme (2 control assays—appropriate enzyme concentrations in the absence of inhibitor, 4 experimental assays; 1 blank in the absence of inhibitors; 2 blanks in the presence of inhibitor (no activator required).
The APDGlc Ppase from Rhodobacter sphaeroides has been used as a model enzyme for initial testing of inhibitors as it has been cloned, sequenced, and expressed in the inventor's laboratory (Meyer et al (1999) Arch. Biochem. Biophys. 372, 179-188; Igarashi, R. Y. and Meyer, C. R. (2000) Arch. Biochem Biophys. 376, 47-58) and the purified recombinant enzyme is readily available. Further, this particular enzyme has the most complex regulation (having partial overlap with nearly every type of ADPG Ppase) and has sufficient homology (ranging from ˜40-70% similarity) to the enzyme primary sequence from the mentioned pathogenic bacteria.
1. OVERVIEW: 2 analogs (ANALOG; stereoisomers I, II) of adenosine-α-P-boranodiphosphoglucose were tested for inhibiting activity against the ADPG Ppase enzyme from Rhodobacter sphaeroides (Rb.s.) ADPG Ppase.
PREMIX: A: 100 mM HEPES (pH 7), 0.5 mg/mL BSA, 0.5 mM Glc-1-P, 0.25 mM ATP subsaturating (near S0.5 value), 5 mM MgCl2, (0.2 U Pyrophosphatase))
(170 μL premix will allow 20 μL for analog vol., 10 μL of E)
II. ANALOG CONC.=5, 50, 500 μM (STOCK CONC.=5 mM) in 50 mM HEPES, pH 7, note that 20 μL of 5 mM in 200 μL assay will yield 500 μM final concentration to obtain 5
• ANALOG I: add 625 μL of HEPES buffer, mix thoroughly • ANALOG II: add 500 μL of HEPES buffer, mix thoroughly 1:10 DILUTION ALIQUOTS OF 5 mM STOCKS are prepared in order to generate stock solutions that will give 50 and 5 μM with the addition of 20 μL. 100 μL aliquots are stored at −20 C RBS ADPG PPASE WT ENZYME CONC.=17 mg/mL (use 1:8000 dilution in Dilution Buffer) The Following Assay Set of 11 are Utilized for Each Analog 1—BLANK (Premix A) 2—BLANK+50 μM ANALOG (A) 3—BLANK+500 μM ANALOG (A) 4—E CON (A) 5—E CON+F6P (B) 6—E+5 μM (A) 7—E+5 μM (B) 8—E+50 μM (A) 9—E+50 μM (B) 10—E+500 μM (A) 11—E+500 μM (B)
Purified Rb.s ADPG Ppase was assayed under standard conditions (0.25 mM ATP [˜S0.5 value], 0.5 mM Glc-1-P, 5 mM Mg, 100 mM HEPES, pH7) in the presence and absence of the activator F6P (1 mM) at 3 concentrations of the analogs: 5, 50, and 500 μM. Analog stock solutions were made in 50 mM HEPES, pH 7). These concentrations should be regarded as estimates as there could have been some breakdown of the compounds during 2 years of storage at −20° C. The analogs had no effect on the background cpm of the assays.

[2] = system: bacteria; settings: cited from earlier work
[3] = single rinse, mouthrinse, 10 subjects; cited from earlier work
[4] = 5 uM analog, premix B (+1 mM F6P)
[5] = 50 uM analog, premix A (no F6P)
[6] = 50 uM analog, premix B (+1 mM F6P)
[7] = 500 uM analog, premix A (no F6P)
[8] = 500 uM analog, premix B (+1 mM F6P)

T1 sequence (Q9RNH7 whole entry): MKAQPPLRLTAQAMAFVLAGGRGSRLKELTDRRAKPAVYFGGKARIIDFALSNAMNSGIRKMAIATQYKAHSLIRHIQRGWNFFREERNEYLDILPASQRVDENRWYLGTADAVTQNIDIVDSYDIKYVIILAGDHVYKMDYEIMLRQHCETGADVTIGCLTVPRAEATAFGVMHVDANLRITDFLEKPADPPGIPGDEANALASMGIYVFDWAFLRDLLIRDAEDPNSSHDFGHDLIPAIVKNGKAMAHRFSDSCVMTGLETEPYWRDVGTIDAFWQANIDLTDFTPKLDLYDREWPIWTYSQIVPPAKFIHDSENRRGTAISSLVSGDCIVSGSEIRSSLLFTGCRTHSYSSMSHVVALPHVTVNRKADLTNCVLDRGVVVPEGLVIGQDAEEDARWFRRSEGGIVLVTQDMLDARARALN

SMILES: BP(=O)(OC[C@H]1O[C@@H](n2cnc3c(N)ncnc32)[C@H](O)[C@@H]1O)OP(=O)(O)O[C@H]1O[C@H](CO)[C@@H](O)[C@H](O)[C@H]1O (single isomer, unassigned) [Analog I, adenosine-α-P-boranodiphosphoglucose]
- *2.2 ([1]; 5 uM analog, premix A (no F6P)): 0.854
- CPM ([1]; 5 uM analog, premix A (no F6P)): 380.67 CPM
- Units/mg ([1]; 5 uM analog, premix A (no F6P)): 4.02 Units/mg
- cor. CPM ([1]; 5 uM analog, premix A (no F6P)): 320.34 CPM
- dil. Corr ([1]; 5 uM analog, premix A (no F6P)): 68.339 nmol/min/µL
- nmol ([1]; 5 uM analog, premix A (no F6P)): 0.39 nmol
- nmol/min ([1]; 5 uM analog, premix A (no F6P)): 0.085 nmol/min
- nmol/min/uL ([1]; 5 uM analog, premix A (no F6P)): 0.0085 nmol/min/µL
- *2.2 [1, 4]: 19.496
- CPM [1, 4]: 7371.33 CPM
- Units/mg [1, 4]: 91.75 Units/mg
- cor. CPM [1, 4]: 7311.00 CPM
- dil. Corr [1, 4]: 1559.680 nmol/min/µL
- nmol [1, 4]: 8.86 nmol
- nmol/min [1, 4]: 1.950 nmol/min
- nmol/min/uL [1, 4]: 0.1950 nmol/min/µL
- *2.2 [1, 5]: 0.755
- CPM [1, 5]: 359.33 CPM
- Units/mg [1, 5]: 3.55 Units/mg
- cor. CPM [1, 5]: 283.00 CPM
- dil. Corr [1, 5]: 60.373 nmol/min/µL
- nmol [1, 5]: 0.34 nmol
- nmol/min [1, 5]: 0.075 nmol/min
- nmol/min/uL [1, 5]: 0.0075 nmol/min/µL
- *2.2 [1, 6]: 18.572
- CPM [1, 6]: 7041.00 CPM
- Units/mg [1, 6]: 87.40 Units/mg
- cor. CPM [1, 6]: 6964.67 CPM
- dil. Corr [1, 6]: 1485.796 nmol/min/µL
- nmol [1, 6]: 8.44 nmol
- nmol/min [1, 6]: 1.857 nmol/min
- nmol/min/uL [1, 6]: 0.1857 nmol/min/µL
- *2.2 [1, 7]: 0.284
- CPM [1, 7]: 160.00 CPM
- Units/mg [1, 7]: 1.33 Units/mg
- cor. CPM [1, 7]: 106.33 CPM
- dil. Corr [1, 7]: 22.684 nmol/min/µL
- nmol [1, 7]: 0.13 nmol
- nmol/min [1, 7]: 0.028 nmol/min
- nmol/min/uL [1, 7]: 0.0028 nmol/min/µL
- *2.2 [1, 8]: 11.341
- CPM [1, 8]: 4306.67 CPM
- Units/mg [1, 8]: 53.37 Units/mg
- cor. CPM [1, 8]: 4253.00 CPM
- dil. Corr [1, 8]: 907.307 nmol/min/µL
- nmol [1, 8]: 5.16 nmol
- nmol/min [1, 8]: 1.134 nmol/min
- nmol/min/uL [1, 8]: 0.1134 nmol/min/µL
- inhibition of Rb.s. ADPG Ppase ([1]; absence of the activator F6P): about 75%
- inhibition of Rb.s. ADPG Ppase ([1]; presence of F6P): ~50%

SMILES: BP(=O)(OC[C@H]1O[C@@H](n2cnc3c(N)ncnc32)[C@H](O)[C@@H]1O)OP(=O)(O)O[C@H]1O[C@H](CO)[C@@H](O)[C@H](O)[C@H]1O (single isomer, unassigned) [Analog II, adenosine-α-P-boranodiphosphoglucose]
- *2.2 ([1]; 5 uM analog, premix A (no F6P)): 1.122
- CPM ([1]; 5 uM analog, premix A (no F6P)): 477.00 CPM
- Units/mg ([1]; 5 uM analog, premix A (no F6P)): 5.28 Units/mg
- cor. CPM ([1]; 5 uM analog, premix A (no F6P)): 420.67 CPM
- dil. Corr ([1]; 5 uM analog, premix A (no F6P)): 89.743 nmol/min/µL
- nmol ([1]; 5 uM analog, premix A (no F6P)): 0.51 nmol
- nmol/min ([1]; 5 uM analog, premix A (no F6P)): 0.112 nmol/min
- nmol/min/uL ([1]; 5 uM analog, premix A (no F6P)): 0.0112 nmol/min/µL
- *2.2 [1, 4]: 19.946
- CPM [1, 4]: 7536.00 CPM
- Units/mg [1, 4]: 93.86 Units/mg
- cor. CPM [1, 4]: 7479.67 CPM
- dil. Corr [1, 4]: 1595.663 nmol/min/µL
- nmol [1, 4]: 9.07 nmol
- nmol/min [1, 4]: 1.995 nmol/min
- nmol/min/uL [1, 4]: 0.1995 nmol/min/µL
- *2.2 [1, 5]: 0.930
- CPM [1, 5]: 399.67 CPM
- Units/mg [1, 5]: 4.38 Units/mg
- cor. CPM [1, 5]: 348.67 CPM
- dil. Corr [1, 5]: 74.383 nmol/min/µL
- nmol [1, 5]: 0.42 nmol
- nmol/min [1, 5]: 0.093 nmol/min
- nmol/min/uL [1, 5]: 0.0093 nmol/min/µL
- *2.2 [1, 6]: 16.305
- CPM [1, 6]: 6165.33 CPM
- Units/mg [1, 6]: 76.73 Units/mg
- cor. CPM [1, 6]: 6114.33 CPM
- dil. Corr [1, 6]: 1304.390 nmol/min/µL
- nmol [1, 6]: 7.41 nmol
- nmol/min [1, 6]: 1.630 nmol/min
- nmol/min/uL [1, 6]: 0.1630 nmol/min/µL
- *2.2 [1, 7]: 0.376
- CPM [1, 7]: 194.33 CPM
- Units/mg [1, 7]: 1.77 Units/mg
- cor. CPM [1, 7]: 141.00 CPM
- dil. Corr [1, 7]: 30.080 nmol/min/µL
- nmol [1, 7]: 0.17 nmol
- nmol/min [1, 7]: 0.038 nmol/min
- nmol/min/uL [1, 7]: 0.0038 nmol/min/µL
- *2.2 [1, 8]: 7.122
- CPM [1, 8]: 2724.00 CPM
- Units/mg [1, 8]: 33.51 Units/mg
- cor. CPM [1, 8]: 2670.67 CPM
- dil. Corr [1, 8]: 569.743 nmol/min/µL
- nmol [1, 8]: 3.24 nmol
- nmol/min [1, 8]: 0.712 nmol/min
- nmol/min/uL [1, 8]: 0.0712 nmol/min/µL
- inhibition of Rb.s. ADPG Ppase ([1]; absence of the activator F6P): about 70%
- inhibition of Rb.s. ADPG Ppase ([1]; presence of F6P): about 70%

SMILES: [F-].[Na+] [NaF]
- increase in concentration necessary to be bacteriocidal ([2]; relative to inhibitory concentration): 30 fold
- concentration required for inhibitory effects ([2]; vehicles): > 100 μl/ml

SMILES: CCCCC(CC)CNC(=N)NC(=N)NCCCCCCNC(=N)NC(=N)NCC(CC)CCCC (stereo not drawn) [alexidine]
- return to pre-rinse levels after [3]: 5 h

SMILES: N=C(NCCCCCCNC(=N)NC(=N)Nc1ccc(Cl)cc1)NC(=N)Nc1ccc(Cl)cc1.O=C(O)[C@H](O)[C@@H](O)[C@H](O)[C@H](O)CO.O=C(O)[C@H](O)[C@@H](O)[C@H](O)[C@H](O)CO [chlorhexidine gluconate]
- return to pre-rinse levels after [3]: 7 h

SMILES: CCCCC(CC)CN1CN(CC(CC)CCCC)CC(C)(N)C1 (stereo not drawn) [hexetidine]
- return to pre-rinse levels after [3]: 1.5 h
